Laboratory results published in patent publication US12351574B2, “Selective ligands for modulation of GIRK channels” (Northeastern University, priority 2018, dated 2025).

Columns and labels:
[1] = system: right atrium of isolated Langendorff-perfused mouse heart; assay: optical mapping of atrial action potential duration in isolated Langendorff-perfused mouse heart; conditions: for atrial optical action potential duration 70% repolarization (APD70), quantification: 2.4 μM, 10 Hz stimulation, FIGS. 23A-23B, controls 23.93 (ML297) and 23.1 (GAT1508); for average APD70 of the map of the stimulated right atrium: 10 minutes after 2.4 μM, 10 Hz, FIG. 22, controls 23.9 (ML297) and 21.8 (GAT1508)
Description: Optical mapping studies in isolated hearts: Isolated hearts of C57BL/6 mice, four to six months of age, were retrogradely perfused with Tyrode's solution in the Langendorff mode. The preparations were maintained at 37° C., and stained with a bolus of a voltage sensitive dye (0.25 ml, 10 μM Di-4-ANEPPS, Molecular Probes) and imaged with a CCD camera (RedShirt Imaging), 80×80 pixels, 85 μm per pixel, and 1000 frames per second. […] A bipolar, silver tip stimulation electrode was used to pace the right atrium (2.5 5 ms pulses, 2× diastolic threshold) at 10 Hz using an AD Instrument stimulation platform. ML297 or GAT1508 at 2.4 μM were introduced into the perfusate. The action potential duration at 70% repolarization (APD70), was quantified as the inventors have done extensively.

[2] = target: T1, GIRK1/4 (Homo sapiens, UniProt P48544+P48549); assay: thallium flux assay, cells expressing GIRK1/4; type: cell-based; design: expressed in transfected cells
T1 sequence (P48549 1-501): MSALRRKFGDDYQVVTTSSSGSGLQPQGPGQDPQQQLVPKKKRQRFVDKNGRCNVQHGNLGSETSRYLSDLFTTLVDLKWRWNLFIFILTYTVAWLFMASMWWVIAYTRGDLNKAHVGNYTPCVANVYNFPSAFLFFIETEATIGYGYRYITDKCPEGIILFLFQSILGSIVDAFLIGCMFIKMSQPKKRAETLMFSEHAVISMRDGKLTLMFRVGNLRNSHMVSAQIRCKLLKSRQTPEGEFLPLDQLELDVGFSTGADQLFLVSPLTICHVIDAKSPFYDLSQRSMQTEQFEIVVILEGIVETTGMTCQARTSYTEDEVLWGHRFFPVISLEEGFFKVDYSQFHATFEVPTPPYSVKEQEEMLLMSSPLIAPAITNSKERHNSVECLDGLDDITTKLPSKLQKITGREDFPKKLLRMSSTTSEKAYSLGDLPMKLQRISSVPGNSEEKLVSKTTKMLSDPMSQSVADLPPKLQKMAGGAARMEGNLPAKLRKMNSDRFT
T1 sequence (P48544 1-419): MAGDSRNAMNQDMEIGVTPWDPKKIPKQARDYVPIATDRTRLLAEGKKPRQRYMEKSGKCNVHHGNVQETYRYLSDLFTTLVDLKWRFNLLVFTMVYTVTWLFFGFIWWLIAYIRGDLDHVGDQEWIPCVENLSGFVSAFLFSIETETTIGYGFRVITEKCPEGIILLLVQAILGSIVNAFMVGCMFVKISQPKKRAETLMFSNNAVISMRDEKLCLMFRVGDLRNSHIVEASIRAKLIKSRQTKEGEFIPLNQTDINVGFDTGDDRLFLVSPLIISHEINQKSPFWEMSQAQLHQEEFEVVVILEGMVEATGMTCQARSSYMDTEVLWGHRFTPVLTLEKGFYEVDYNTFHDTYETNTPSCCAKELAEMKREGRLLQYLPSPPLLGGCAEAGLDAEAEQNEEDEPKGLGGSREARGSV
Source text: Previous studies have utilized the thallium flux Assay to test the effects of ML297 and related compounds in cells coexpressing GIRK1/2 and GIRK1/4. In order to fully investigate the selective activation of GAT compounds, the inventors also utilized this assay. […] To determine the differences between the thallium flux and TEVC assays, the inventors computationally tested whether the binding of selective compounds could affect the selectivity of the pore area. The Cα RMSF of the region between the M1 and M2 helices of the channel were calculated during the MD simulation with or without ML297 and the selective GAT compounds in the GIRK2/2^FD and GIRK4/4^FD systems (FIGS. 60A-60B). […] To further test this idea, the inventors compared the 10 μM GAT1508-induced thallium and potassium currents in oocytes expressing GIRK1/2 and GIRK1/4 by TEVC recording (FIG. 61B). […] In an effort to enhance the current, the TEVC recording was performed at a holding potential of −100 mV.

Row | SMILES | atrial optical action potential duration 70% repolarization (APD70), quantification [1] | average APD70 of the map of the stimulated right atrium [1] | activation of GIRK1/4 in thallium flux assay (in words) ([2]; concentration-response, FIG. 61A) | EC50 ([2]; thallium flux assay)
1 | Cc1cc(NC(=O)Nc2ccc(Br)s2)n(-c2ccccc2)n1 [GAT1508, 1-(5-bromothiophen-2-yl)-3-(3-methyl-1-phenyl-1H-pyrazol-5-yl)urea] | 23.57 ms | 20.3 ms | also activated the cardiac heteromer | –
2 | Cc1cc(NC(=O)Nc2ccc(F)c(F)c2)n(-c2ccccc2)n1 [ML297, reference compound] | 16.53 ms | 16 ms | – | ~2890 nM
